From PMC4434572, “Identification of novel drugs to target dormant micrometastases” (BMC Cancer, 2015)
Where two headings read alike, the source gives them in different places.

How the values were obtained:
[1] = test system: U251 (glioblastoma); assay: Proliferation EC50 on Matrigel vs SISgel; format: cell-based
[2] = test system: DU145 (prostate); assay: Proliferation EC50 on Matrigel vs SISgel; format: cell-based
[3] = test system: AGS (gastric); assay: Proliferation EC50 on Matrigel vs SISgel; format: cell-based
[4] = test system: J82 (bladder); assay: Proliferation EC50 on SISgel vs monolayer; format: cell-based; details: n = 6-8
[5] = test system: MDA-MB-435 cells; assay: Western blot of protein levels after treatment; format: cell-based
Experimental: Protein content of selected proteins identified by reversed phase protein array (see supplementary materials) as being involved mechanistically in the response to DT320 was assayed by Western blot as described using the following antibodies. The following antibodies were purchased from Cell Signaling Technology (Beverly, MA) and diluted per manufacturer’s directions: Rabbit mAb Anti-Phospho-AKT (Ser473) (D9E) XP® #4060, Rabbit mAb anti-p38 MAPK (D13E1) XP® #8690, Mouse mAb anti-Phospho-SAPK/JNK (Thr183/Tyr185) (G9) #9255, Rabbit mAb anti-Phospho-CHK1 (Ser345) (133D3) #2348, Rabbit polyclonal anti-Phospho-CHK2 (Thr68) Antibody #2661, Rabbit polyclonal anti-BAX Antibody #2772, Rabbit polyclonal anti-Vinculin Antibody #4650, Mouse mAb anti-Cyclin D1 (DCS6) #2926, Rabbit mAb anti-Cyclin E2 (D52F9) b #3741, […], Mouse mAb anti-Cyclin B1 (V152) #4135, Rabbit mAb anti-cleaved PARP (Asp214) (D64E10) XP® #5625, Rabbit mAb anti-cleaved Caspase-3 (Asp175) (5A1E) #9654, Rabbit mAb anti-Nanog (D73G4), #4903; Rabbit mAb anti-Oct4 (C52G3) #2890; and Rabbit mAb anti-Sox2 (D6D9) #3579. Specificity of each antibody is illustrated on the company’s web page. For negative controls, pre-immune rabbit IgG was used. No signal was detected in the control IgG samples. No intensities or contrast were modified, but the appropriate bands were cut out using PhotoShop to prepare composite gel images.
To elucidate the mechanism of DT310 and DT320, cell cycle analysis and Western blotting was performed. The proteins for Western blot were selected from preliminary results using reverse phase protein array (RPPA) for DT320 and DT321 treated MDA-MB-435 and T24 cells. […] Proteins within these clusters showing the largest differences in protein expression and that were related to known anticancer drug action were confirmed by Western blot. Docetaxel was used as a positive control because it is known to induce a cell cycle arrest and apoptosis signature.

[6] = test system: MDA-MB-435 cells; assay: Proliferation (CFDA-AM esterase assay) of cells grown on SISgel, plastic or Matrigel, 48 h drug exposure; format: cell-based; details: MDA-MB-435 grown on Matrigel (fully malignant phenotype)
[7] = in vivo; details: mouse

SMILES: O=S(=O)([O-])c1cc(O)c2c(O)c(N=Nc3cccc4ccccc34)c(S(=O)(=O)[O-])cc2c1.[Na+].[Na+] [DT320, 4,5-Dihydroxy-3-(1-naphthalenylazo)-2,7-naphthalenedisulfonic acid disodium salt]
- Ratio ([1]; Matrigel/SISgel EC50, U251): 1.5
- EC50 ([1]; U251 on Matrigel, read-out: EC50 Matrigel): 95 µM
- EC50 ([1]; U251 on SISgel, read-out: EC50 SISgel): 64.6 µM
- EC50 ([2]; DU145 on Matrigel, read-out: EC50 Matrigel): 183 µM
- EC50 ([2]; DU145 on SISgel, read-out: EC50 SISgel): 45.7 µM
- Ratio ([2]; Matrigel/SISgel EC50, DU145): 4.0
- EC50 ([3]; AGS on Matrigel, read-out: EC50 Matrigel): 104 µM
- EC50 ([3]; AGS on SISgel, read-out: EC50 SISgel): 45.1 µM
- Ratio ([3]; Matrigel/SISgel EC50, AGS): 2.3
- EC50 ([4]; J82 monolayer, read-out: EC50 Monolayer): 71.2 ± 8.1 µM
- EC50 ([4]; J82 on SISgel, read-out: EC50 SISgel): 30.9 ± 4.8 µM
- Cyclin D1 (CCND1) expression [5]: induced
- cleaved caspase 3 ([5]; 48 h): increased signal
- EC50 [6]: 48.2 µM

SMILES: COc1cccc2c1C(=O)c1c(O)c3c(c(O)c1C2=O)C[C@@](O)(C(=O)CO)C[C@@H]3O[C@H]1C[C@H](N)[C@H](O)[C@H](C)O1 [Doxorubicin, reference compound]
- MTD ([7]; BALB/c, ip): 1 mg/kg
- MTD [7]: 1 mg/kg
